The text below walks through data of patent publication US7772263B2, “Compounds for the treatment of inflammatory disorders” (Schering Corporation, priority 2006, dated 2010).

The target in one test is T1, purified catalytic domain of recombinant human TACE (rhTACEc) (Homo sapiens, UniProt P78536, N452Q/S266A).
T1 construct: rhTACEc, Residue 215 to 477 with two mutation (S266A and N4520) and a 6×His tail; 6xHis (C); made in house; host or cells: baculovirus/Hi5 insect cells
T1 sequence (P78536 215-477 S266A/N452Q limits assumed): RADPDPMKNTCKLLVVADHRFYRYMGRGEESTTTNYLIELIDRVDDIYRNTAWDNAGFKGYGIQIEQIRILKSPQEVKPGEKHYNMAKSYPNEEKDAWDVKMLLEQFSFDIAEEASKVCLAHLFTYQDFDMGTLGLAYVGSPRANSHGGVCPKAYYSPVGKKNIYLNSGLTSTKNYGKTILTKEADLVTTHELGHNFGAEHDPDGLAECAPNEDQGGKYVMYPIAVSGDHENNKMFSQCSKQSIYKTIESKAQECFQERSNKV
Description: TACE kinetic assay, cleavage of internally quenched fluorescent peptide substrate SPDL-3. Type of test: biochemical. As to conditions: TACE inhibition, Table 1001; read-out: Ki Rating.
With `COc1ccc2c(c1)C(=O)N(CC1(C#Cc3cnn(C)c3)NC(=O)NC1=O)C2` (centres unmarked) [Compound 312B], the Ki was under 5 nM.

As to `COc1ccc2c(c1)C(=O)N(CC1(C#Cc3cccnc3)NC(=O)NC1=O)C2` (centres unmarked) [Compound 312], the inhibitory constant (Ki) is under 5 nM. Consider `COc1ccc2c(c1)C(=O)N(CC1(C#Cc3ccc(F)cc3F)NC(=O)NC1=O)C2` (centres unmarked) [Compound 315A], for which the Ki is under 5 nM. Same read-out and setting: for `COc1ccc2c(c1)C(=O)N(CC1(C#Cc3ccc(F)cc3)NC(=O)NC1=O)C2` (centres unmarked) [Compound 315] the value was under 5 nM; for `COc1ccc2c(c1)C(=O)N(C[C@@]1(C#Cc3cccnc3)NC(=O)NC1=O)C2` [Compound 400B], under 5 nM; for `C#C[C@]1(CN2Cc3ccc(OC)cc3C2=O)NC(=O)NC1=O` [Compound 401], under 5 nM. `COc1ccc2c(c1)C(=O)N(C[C@@]1(C#Cc3cncc(-c4cnn(C)c4)c3)NC(=O)NC1=O)C2` [Compound 409C]: the Ki was under 5 nM. Regarding `COc1ccc2c(c1)C(=O)N(C[C@@]1(C#Cc3cncc(N4CCCC4)c3)NC(=O)NC1=O)C2` [Compound 410B], the Ki was under 5 nM. For `COc1ccc2c(c1)C(=O)N(C[C@@]1(C#Cc3ccc(F)cc3)NC(=O)NC1=O)C2` [Compound 411], the Ki is under 5 nM. Take `CNc1nc2ccc(C#C[C@]3(CN4Cc5ccc(OC)cc5C4=O)NC(=O)NC3=O)cc2s1` [Compound 412D]: the Ki was under 5 nM.

Regarding `COc1ccc2c(c1)C(=O)N(C[C@@]1(C#Cc3ccc(CN4CCCC4)nc3)NC(=O)NC1=O)C2` [Compound 413D], the Ki was under 5 nM. Same read-out and setting: as for `COc1ccc2c(c1)C(=O)N(C[C@@]1(C#Cc3ccc(C4(N)CC4)nc3)NC(=O)NC1=O)C2` [Compound 414B], the figure is 5 to 25 nM; as for `COc1ccc2c(c1)C(=O)N(C[C@@]1(C#Cc3ccc[nH]c3=O)NC(=O)NC1=O)C2` [Compound 417C], under 5 nM. `COc1ccc2c(c1)C(=O)N(C[C@@]1(C#Cc3ccc4nn(C)cc4c3)NC(=O)NC1=O)C2` [Compound 421]: the Ki was under 5 nM. Regarding `COc1ccc2c(c1)C(=O)N(C[C@@]1(C#Cc3ccc4nc(C)ccc4c3)NC(=O)NC1=O)C2` [Compound 422], the Ki is under 5 nM. Turning to `COc1ccc2c(c1)C(=O)N(C[C@@]1(C#Cc3ccc4cnn(C)c4c3)NC(=O)NC1=O)C2` [Compound 423], the Ki is under 5 nM. For the compound `COc1ccc2c(c1)C(=O)N(C[C@@]1(C#Cc3ccc4cn(C)nc4c3)NC(=O)NC1=O)C2` [Compound 424], the Ki is under 5 nM. Take `COc1ccc2c(c1)C(=O)N(C[C@@]1(C#Cc3cncc4ccccc34)NC(=O)NC1=O)C2` [Compound 425]: the Ki is under 5 nM.

`COc1ccc2c(c1)C(=O)N(C[C@@]1(C#Cc3ccc(F)c(C(F)(F)F)c3)NC(=O)NC1=O)C2` [Compound 426]: the Ki is under 5 nM. With `COc1ccc2c(c1)C(=O)N(C[C@@]1(C#Cc3ccc(C)c(F)c3)NC(=O)NC1=O)C2` [Compound 427], the Ki is under 5 nM. Same read-out and setting: for `COc1ccc2c(c1)C(=O)N(C[C@@]1(C#Cc3ccc(C)c(Cl)c3)NC(=O)NC1=O)C2` [Compound 428] the value was under 5 nM; for `COc1ccc2c(c1)C(=O)N(C[C@@]1(C#Cc3cccc(OC(F)(F)F)c3)NC(=O)NC1=O)C2` [Compound 429], under 5 nM.

With `COc1ccc2c(c1)C(=O)N(C[C@@]1(C#Cc3cncc(F)c3)NC(=O)NC1=O)C2` [Compound 430], the Ki is under 5 nM. As for `COc1ccc2c(c1)C(=O)N(C[C@@]1(C#Cc3ccc(F)c(C)c3)NC(=O)NC1=O)C2` [Compound 432], the Ki was under 5 nM. In the case of `COc1ccc2c(c1)C(=O)N(C[C@@]1(C#Cc3ccc(F)cc3Cl)NC(=O)NC1=O)C2` [Compound 433], the Ki was under 5 nM. On to `COc1ccc2c(c1)C(=O)N(C[C@@]1(C#Cc3cc(F)c(F)c(OC)c3)NC(=O)NC1=O)C2` [Compound 434], for which the Ki was under 5 nM. Still for that read-out and setting: as for `COc1ccc2c(c1)C(=O)N(C[C@@]1(C#Cc3cc(O)c(F)c(F)c3)NC(=O)NC1=O)C2` [Compound 435], the figure is under 5 nM; as for `COc1ccc2c(c1)C(=O)N(C[C@@]1(C#Cc3ccc(C(F)(F)F)c(F)c3)NC(=O)NC1=O)C2` [Compound 436], under 5 nM. As for `COc1ccc2c(c1)C(=O)N(C[C@@]1(C#Cc3cccc(F)c3C)NC(=O)NC1=O)C2` [Compound 437], the Ki is under 5 nM. On to `COc1ccc2c(c1)C(=O)N(C[C@@]1(C#Cc3cccc(Cl)c3C)NC(=O)NC1=O)C2` [Compound 438], for which the Ki is under 5 nM. As for `COc1ccc2c(c1)C(=O)N(C[C@@]1(C#Cc3cc(C)cc(F)c3)NC(=O)NC1=O)C2` [Compound 439], the inhibition constant Ki was under 5 nM. Take `COc1ccc2c(c1)C(=O)N(C[C@@]1(C#Cc3cc(F)cc(C(F)(F)F)c3)NC(=O)NC1=O)C2` [Compound 440]: the Ki was under 5 nM.

Regarding `COc1ccc2c(c1)C(=O)N(C[C@@]1(C#Cc3cccc4ncccc34)NC(=O)NC1=O)C2` [Compound 441], the inhibitory constant (Ki) was under 5 nM.

With `COc1ccc2c(c1)C(=O)N(C[C@@]1(C#Cc3cccc4cnccc34)NC(=O)NC1=O)C2` [Compound 442], the Ki is under 5 nM.

Turning to `COc1ccc2c(c1)C(=O)N(C[C@@]1(C#Cc3cnc4ccccc4c3)NC(=O)NC1=O)C2` [Compound 443], the inhibition constant (Ki) was under 5 nM. As to `COc1ccc2c(c1)C(=O)N(C[C@@]1(C#Cc3ccc4c(cnn4C)c3)NC(=O)NC1=O)C2` [Compound 444], the Ki was under 5 nM.

Take `COc1ccc2c(c1)C(=O)N(C[C@@]1(C#Cc3cccc(F)c3)NC(=O)NC1=O)C2` [Compound 445]: the Ki was under 5 nM. On the same count and under the same terms, as for `COc1ccc2c(c1)C(=O)N(C[C@@]1(C#Cc3cccc(Cl)c3)NC(=O)NC1=O)C2` [Compound 446], the figure is under 5 nM. On to `COc1ccc2c(c1)C(=O)N(C[C@@]1(C#Cc3cccc(C#N)c3)NC(=O)NC1=O)C2` [Compound 447], for which the Ki was under 5 nM. As for `COc1ccc2c(c1)C(=O)N(C[C@@]1(C#Cc3cc(F)cc(F)c3)NC(=O)NC1=O)C2` [Compound 448], the inhibitory constant (Ki) is under 5 nM. `COc1ccc2c(c1)C(=O)N(C[C@@]1(C#Cc3cc(Cl)cc(Cl)c3)NC(=O)NC1=O)C2` [Compound 449]: the Ki was under 5 nM. For `COc1ccc2c(c1)C(=O)N(C[C@@]1(C#Cc3cncnc3)NC(=O)NC1=O)C2` [Compound 450], the Ki is under 5 nM. Same read-out and setting: as for `COc1ccc2c(c1)C(=O)N(C[C@@]1(C#Cc3cccc(S(C)(=O)=O)c3)NC(=O)NC1=O)C2` [Compound 451], the figure is under 5 nM; as for `COc1ccc2c(c1)C(=O)N(C[C@@]1(C#Cc3ccc(Cl)c(F)c3)NC(=O)NC1=O)C2` [Compound 452], under 5 nM. Still for that read-out and setting: for `COc1ccc2c(c1)C(=O)N(C[C@@]1(C#Cc3cnc(N)nc3)NC(=O)NC1=O)C2` [Compound 453] the value was under 5 nM.

As for `COc1ccc2c(c1)C(=O)N(C[C@@]1(C#Cc3nccs3)NC(=O)NC1=O)C2` [Compound 454], the Ki was under 5 nM. On to `COc1ccc2c(c1)C(=O)N(C[C@@]1(C#Cc3cscn3)NC(=O)NC1=O)C2` [Compound 455], for which the Ki was under 5 nM. `COc1ccc2c(c1)C(=O)N(C[C@@]1(C#Cc3cc(F)cc(Cl)c3)NC(=O)NC1=O)C2` [Compound 456]: the inhibition constant (Ki) is under 5 nM. Same read-out and setting: as for `COc1ccc2c(c1)C(=O)N(C[C@@]1(C#Cc3c(C)nn(C)c3C)NC(=O)NC1=O)C2` [Compound 457], the figure is under 5 nM; as for `COc1ccc2c(c1)C(=O)N(C[C@@]1(C#Cc3cc(F)cc(C#N)c3)NC(=O)NC1=O)C2` [Compound 458], under 5 nM.

As to `COc1ccc2c(c1)C(=O)N(C[C@@]1(C#Cc3cccc(C(F)(F)F)c3)NC(=O)NC1=O)C2` [Compound 459], the Ki is under 5 nM. The same measure, in the same setting: for `COc1ccc2c(c1)C(=O)N(C[C@@]1(C#Cc3ccc4nccn4c3)NC(=O)NC1=O)C2` [Compound 460] the value was under 5 nM; for `COc1ccc2c(c1)C(=O)N(C[C@@]1(C#Cc3cc(F)cc(F)c3F)NC(=O)NC1=O)C2` [Compound 461], under 5 nM; for `COc1ccc2c(c1)C(=O)N(C[C@@]1(C#Cc3cc(Cl)cc(C#N)c3)NC(=O)NC1=O)C2` [Compound 462], under 5 nM. `COc1ccc2c(c1)C(=O)N(C[C@@]1(C#Cc3cccs3)NC(=O)NC1=O)C2` [Compound 463]: the inhibition constant Ki was under 5 nM. For `COc1ccc2c(c1)C(=O)N(C[C@@]1(C#Cc3ccsc3)NC(=O)NC1=O)C2` [Compound 464], the Ki is under 5 nM. For the compound `COc1ccc2c(c1)C(=O)N(C[C@@]1(C#Cc3csc(C(C)C)n3)NC(=O)NC1=O)C2` [Compound 465], the inhibitory constant (Ki) is under 5 nM.

In the case of `COc1ccc2c(c1)C(=O)N(C[C@@]1(C#Cc3c(F)ccc(F)c3F)NC(=O)NC1=O)C2` [Compound 466], the Ki is under 5 nM. As to `COc1ccc2c(c1)C(=O)N(C[C@@]1(C#Cc3csc(C)n3)NC(=O)NC1=O)C2` [Compound 467], the inhibition constant (Ki) is under 5 nM. As to `COc1ccc2c(c1)C(=O)N(C[C@@]1(C#Cc3ncccn3)NC(=O)NC1=O)C2` [Compound 468], the Ki was under 5 nM. With `COc1ccc2c(c1)C(=O)N(C[C@@]1(C#Cc3cnccn3)NC(=O)NC1=O)C2` [Compound 469], the Ki was under 5 nM.

`COc1ccc2c(c1)C(=O)N(C[C@@]1(C#Cc3ncnc4ccccc34)NC(=O)NC1=O)C2` [Compound 470]: the Ki was under 5 nM. As for `COc1ccc2c(c1)C(=O)N(C[C@@]1(C#Cc3cnc(C)s3)NC(=O)NC1=O)C2` [Compound 471], the Ki is under 5 nM.

For the compound `COc1ccc2c(c1)C(=O)N(C[C@@]1(C#Cc3ccc(C4CC4)nc3)NC(=O)NC1=O)C2` [Compound 472], the Ki was under 5 nM. Consider `COc1ccc2c(c1)C(=O)N(C[C@@]1(C#Cc3cncc(C4(N)CC4)c3)NC(=O)NC1=O)C2` [Compound 480], for which the inhibitory constant (Ki) was under 5 nM. Take `COc1ccc2c(c1)C(=O)N(C[C@@]1(C#Cc3cncc(C#N)c3)NC(=O)NC1=O)C2` [Compound 481]: the inhibition constant Ki was under 5 nM.

Staying with this test, now noted: rhTACEc 70 pM, 30 μM SPDL-3, 90 min pre-incubation at 25° C.; read-out: Ki (nM), TACE inhibitory activity.
`COc1ccc2c(c1)C(=O)N(C[C@@]1(C#Cc3cccnc3)NC(=O)NC1=O)C2` [Compound 400B]: the Ki is 0.44 nM. `COc1ccc2c(c1)C(=O)N(C[C@@]1(C#Cc3cccc4cnccc34)NC(=O)NC1=O)C2` [Compound 442]: the Ki turned out to be 0.11 nM.

A word on the Ki: it is the equilibrium dissociation constant of an inhibitor or competing ligand from its target.
